Measurements: US20180265515A1 (Genentech, Inc., priority 2015, published 2018)

Experiments:
LRRK2 = LRRK2 (Homo sapiens, UniProt Q5S007); test: LRRK2 assay (Life Technologies Adapta, SelectScreen Profiling, IC50); format: biochemical; conditions: for IC50: 75 μM ATP, 10-point curves, read-out: LRRK 2 IC50; for Ratio (LRRK 2 IC50: JAK1 Ki): selectivity ratio LRRK2 IC50 over JAK1 Ki; for selectivity for JAK1 over LRRK2 (in words): 5-sulfanylphenyl compound compared with 5-chlorophenyl matched pair
[1] = biological target: T1, isolated recombinant JAK1 kinase domain (Homo sapiens, UniProt P23458); test: JAK1 enzyme assay (Caliper LabChip, Ki); format: biochemical; conditions: 25 μM ATP
T1 construct: The activity of the isolated recombinant JAK1 and JAK2 kinase domain was measured
Procedure, shortened: (§1)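 Ki values fitted with Morrison tight-binding equation adjusted for ATP-competitive inhibition, using product-to-total peptide ratio read by Caliper LabChip. Reactions: isolated JAK1 or JAK2 kinase domain with N-terminal 5-carboxyfluorescein JAK3-derived peptide, 22° C for 30 min, quenched by EDTA.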

[2] = biological target: T2, isolated recombinant JAK2 kinase domain (Homo sapiens, UniProt O60674); test: JAK2 enzyme assay (Caliper LabChip, Ki); format: biochemical; conditions: 25 μM ATP
T2 construct: The activity of the isolated recombinant JAK1 and JAK2 kinase domain was measured
Procedure, shortened: as §1

[3] = tested on: JAK1-dependent STAT6 phosphorylation downstream of IL-13 stimulation in BEAS-2B human bronchial epithelial cells; test: JAK1 pathway assay in BEAS-2B cells (IL-13 stimulated STAT6 phosphorylation, MSD); format: cell-based; conditions: read-out: P-STAT6 BEAS2B + IL13 IC50
Procedure, shortened: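 BEAS-2B human bronchial epithelial cells, plated the day before in complete growth medium, were preincubated with compound for 1 hr at 37° C (0.2% DMSO final), then stimulated with IL-13 at its EC90 for 15 min. STAT6 phosphorylation in lysates was read by MSD; EC50 was taken as 50% inhibition versus DMSO control.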

T2 sequence (O60674 849-1124 limits assumed): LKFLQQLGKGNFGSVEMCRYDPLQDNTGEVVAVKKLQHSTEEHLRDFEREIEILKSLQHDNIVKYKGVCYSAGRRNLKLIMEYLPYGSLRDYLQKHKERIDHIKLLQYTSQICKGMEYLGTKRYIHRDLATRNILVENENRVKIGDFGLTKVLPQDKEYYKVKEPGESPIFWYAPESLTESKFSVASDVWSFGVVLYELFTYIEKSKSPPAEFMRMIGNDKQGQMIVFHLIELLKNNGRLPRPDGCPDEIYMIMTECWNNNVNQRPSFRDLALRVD
T1 sequence (P23458 875-1153 limits assumed): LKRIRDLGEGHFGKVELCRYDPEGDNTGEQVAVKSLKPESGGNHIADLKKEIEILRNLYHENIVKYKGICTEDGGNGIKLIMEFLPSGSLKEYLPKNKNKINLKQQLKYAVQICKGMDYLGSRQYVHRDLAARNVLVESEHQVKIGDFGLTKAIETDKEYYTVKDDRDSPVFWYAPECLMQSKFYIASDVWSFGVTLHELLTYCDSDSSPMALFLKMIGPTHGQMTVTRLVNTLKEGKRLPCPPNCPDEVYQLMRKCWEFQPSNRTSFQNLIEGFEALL
Chain of LRRK2 (Q5S007 970-2527 limits assumed): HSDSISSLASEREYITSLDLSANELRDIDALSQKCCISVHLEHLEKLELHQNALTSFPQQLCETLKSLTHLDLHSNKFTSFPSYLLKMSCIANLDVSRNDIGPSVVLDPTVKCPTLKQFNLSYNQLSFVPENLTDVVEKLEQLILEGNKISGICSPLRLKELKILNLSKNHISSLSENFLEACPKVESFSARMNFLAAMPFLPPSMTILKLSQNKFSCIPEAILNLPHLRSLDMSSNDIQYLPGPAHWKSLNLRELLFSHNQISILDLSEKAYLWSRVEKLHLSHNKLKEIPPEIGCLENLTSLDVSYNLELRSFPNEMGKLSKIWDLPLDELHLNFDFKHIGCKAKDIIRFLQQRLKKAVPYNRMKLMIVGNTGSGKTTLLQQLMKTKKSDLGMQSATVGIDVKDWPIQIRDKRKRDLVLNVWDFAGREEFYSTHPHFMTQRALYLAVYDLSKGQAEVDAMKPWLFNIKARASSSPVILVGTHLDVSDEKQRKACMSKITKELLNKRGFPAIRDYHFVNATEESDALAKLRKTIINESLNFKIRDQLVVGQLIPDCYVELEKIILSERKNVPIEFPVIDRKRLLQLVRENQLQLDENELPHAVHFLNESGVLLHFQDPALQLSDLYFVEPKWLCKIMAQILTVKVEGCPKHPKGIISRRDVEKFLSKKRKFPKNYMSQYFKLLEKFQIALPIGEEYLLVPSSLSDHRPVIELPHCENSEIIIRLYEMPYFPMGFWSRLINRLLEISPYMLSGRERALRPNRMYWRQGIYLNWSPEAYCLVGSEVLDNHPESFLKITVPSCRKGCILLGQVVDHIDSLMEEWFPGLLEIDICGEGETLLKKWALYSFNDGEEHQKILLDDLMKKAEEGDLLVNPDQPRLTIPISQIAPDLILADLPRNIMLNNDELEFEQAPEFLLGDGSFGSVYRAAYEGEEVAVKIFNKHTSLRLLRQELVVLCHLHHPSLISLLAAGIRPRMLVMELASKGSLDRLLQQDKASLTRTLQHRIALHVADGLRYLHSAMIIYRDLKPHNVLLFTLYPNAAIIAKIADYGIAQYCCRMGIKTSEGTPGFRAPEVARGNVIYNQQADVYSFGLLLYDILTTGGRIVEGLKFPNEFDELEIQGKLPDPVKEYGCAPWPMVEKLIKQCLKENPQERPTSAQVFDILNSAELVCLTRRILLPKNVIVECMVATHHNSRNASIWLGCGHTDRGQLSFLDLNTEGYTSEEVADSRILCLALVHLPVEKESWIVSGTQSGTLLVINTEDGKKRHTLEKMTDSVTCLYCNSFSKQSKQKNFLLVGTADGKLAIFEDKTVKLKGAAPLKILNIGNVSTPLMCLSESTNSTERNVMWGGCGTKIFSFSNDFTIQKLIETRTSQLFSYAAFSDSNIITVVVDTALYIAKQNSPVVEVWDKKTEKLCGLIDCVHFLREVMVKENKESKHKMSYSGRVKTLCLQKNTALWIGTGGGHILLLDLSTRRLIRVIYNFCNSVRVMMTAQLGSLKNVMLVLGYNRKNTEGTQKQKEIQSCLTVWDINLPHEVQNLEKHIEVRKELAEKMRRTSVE

IC50 (LRRK2) [nM] | Ratio (LRRK 2 IC50: JAK1 Ki) (LRRK2) | Ki ([1]; Morrison tight binding model) [nM] | Ki ([1]; recombinant JAK1 kinase domain) [nM] | Ki [2] [nM] | SMILES | selectivity for JAK1 over LRRK2 (in words) (LRRK2) | IC50 [3] [nM]
80.9 | 449 | 0.18 | – | – | Cn1cc(NC(=O)c2cnn3cccnc23)c(-c2cc(Cl)ccc2OC(F)F)n1 [A, reference compound] | – | –
431 | 1078 | 0.4 | – | – | CC(C)(O)Cn1cc(NC(=O)c2cnn3cccnc23)c(-c2cc(Cl)ccc2OC(F)F)n1 [B, reference compound] | – | –
1030 | 1493 | 0.69 | – | – | O=C(Nc1cn(C2CCOCC2)nc1-c1cc(Cl)ccc1OC(F)F)c1cnn2cccnc12 [C, reference compound] | – | –
193 | 1485 | 0.13 | – | – | CSc1ccc(OC(F)F)c(-c2nn(C)cc2NC(=O)c2cnn3cccnc23)c1 [D] | greater selectivity for JAK1 over LRRK2 than their 5-chlorophenyl matched pair A | –
2220 | 8880 | 0.25 | – | – | CC(C)Sc1ccc(OC(F)F)c(-c2nn(C)cc2NC(=O)c2cnn3cccnc23)c1 [E] | greater selectivity for JAK1 over LRRK2 than their 5-chlorophenyl matched pair A | –
– | – | – | 0.56 | 1.1 | O=C(Nc1cn(CC(=O)N2CCN(C3CCOCC3)CC2)nc1-c1cc(SC2COC2)ccc1OC(F)F)c1cnn2cccnc12 [Example 184, N-[3-[2-(difluoromethoxy)-5-(oxetan-3-ylsulfanyl)phenyl]-1-[2-oxo-2-(4-tetrahydropyran-4-ylpiperazin-1-yl)ethyl]pyrazol-4-yl]pyrazolo[1,5-a]pyrimidine-3-carboxamide] | – | 74
– | – | – | 0.71 | 1.7 | CC(F)(F)CNC1CCN(C(=O)Cn2cc(NC(=O)c3cnn4cccnc34)c(-c3cc(SC4COC4)ccc3OC(F)F)n2)CC1 [Example 185, N-[3-[2-(difluoromethoxy)-5-(oxetan-3-ylsulfanyl)phenyl]-1-[2-[4-(2,2-difluoropropylamino)-1-piperidyl]-2-oxo-ethyl]pyrazol-4-yl]pyrazolo[1,5-a]pyrimidine-3-carboxamide] | – | 47
– | – | – | 0.65 | 1.8 | CC(C)(C#N)CNC1CCN(C(=O)Cn2cc(NC(=O)c3cnn4cccnc34)c(-c3cc(SC4COC4)ccc3OC(F)F)n2)CC1 [Example 186, N-[1-[2-[4-[(2-cyano-2-methyl-propyl)amino]-1-piperidyl]-2-oxo-ethyl]-3-[2-(difluoromethoxy)-5-(oxetan-3-ylsulfanyl)phenyl]pyrazol-4-yl]pyrazolo[1,5-a]pyrimidine-3-carboxamide] | – | 90
– | – | – | 0.54 | 1.3 | CN(C1CCN(C(=O)Cn2cc(NC(=O)c3cnn4cccnc34)c(-c3cc(SC4COC4)ccc3OC(F)F)n2)CC1)C1COC1 [Example 187, N-[3-[2-(difluoromethoxy)-5-(oxetan-3-ylsulfanyl)phenyl]-1-[2-[4-[methyl(oxetan-3-yl)amino]-1-piperidyl]-2-oxo-ethyl]pyrazol-4-yl]pyrazolo[1,5-a]pyrimidine-3-carboxamide] | – | 250
– | – | – | 0.62 | 1.3 | O=C(Nc1cn(CC(=O)N2CCN(CC3CCOCC3)CC2)nc1-c1cc(SC2COC2)ccc1OC(F)F)c1cnn2cccnc12 [Example 188, N-[3-[2-(difluoromethoxy)-5-(oxetan-3-ylsulfanyl)phenyl]-1-[2-oxo-2-[4-(tetrahydropyran-4-ylmethyl)piperazin-1-yl]ethyl]pyrazol-4-yl]pyrazolo[1,5-a]pyrimidine-3-carboxamide] | – | 48
– | – | – | 1 | 3 | N#CC1(CNC2CCN(C(=O)Cn3cc(NC(=O)c4cnn5cccnc45)c(-c4cc(SC5COC5)ccc4OC(F)F)n3)CC2)CC1 [Example 189, N-[1-[2-[4-[(1-cyanocyclopropyl)methylamino]-1-piperidyl]-2-oxo-ethyl]-3-[2-(difluoromethoxy)-5-(oxetan-3-ylsulfanyl)phenyl]pyrazol-4-yl]pyrazolo[1,5-a]pyrimidine-3-carboxamide] | – | 770
– | – | – | 1.1 | 3.8 | CN1CCN(C2CCN(C(=O)Cn3cc(NC(=O)c4cnn5cccnc45)c(-c4cc(SC5COC5)ccc4OC(F)F)n3)CC2)CC1 [Example 190, N-[3-[2-(difluoromethoxy)-5-(oxetan-3-ylsulfanyl)phenyl]-1-[2-[4-(4-methylpiperazin-1-yl)-1-piperidyl]-2-oxo-ethyl]pyrazol-4-yl]pyrazolo[1,5-a]pyrimidine-3-carboxamide] | – | 170
– | – | – | 0.44 | 1 | COC(=O)N1CCN(CC2CCN(C(=O)Cn3cc(NC(=O)c4cnn5cccnc45)c(-c4cc(SC5COC5)ccc4OC(F)F)n3)CC2)CC1 [Example 191, methyl 4-[[1-[2-[3-[2-(difluoromethoxy)-5-(oxetan-3-ylsulfanyl)phenyl]-4-(pyrazolo[1,5-a]pyrimidine-3-carbonylamino)pyrazol-1-yl]acetyl]-4-piperidyl]methyl]piperazine-1-carboxylate] | – | 49
– | – | – | 0.12 | 0.055 | CCSc1ccc(OC(F)F)c(-c2n[nH]cc2NC(=O)c2cnn3cccnc23)c1 [Example 192, N-[3-[2-(difluoromethoxy)-5-ethylsulfanyl-phenyl]-1H-pyrazol-4-yl]pyrazolo[1,5-a]pyrimidine-3-carboxamide] | – | 2
– | – | – | 0.36 | 0.57 | CCSc1ccc(OC(F)F)c(-c2nn(CC(=O)N3CCC(N4CCOCC4)CC3)cc2NC(=O)c2cnn3cccnc23)c1 [Example 193] | – | 17
– | – | – | 0.31 | 0.63 | CCSc1ccc(OC(F)F)c(-c2nn(CC(=O)N3CCC(N(C)CCC#N)CC3)cc2NC(=O)c2cnn3cccnc23)c1 [Example 194, N-[1-[2-[4-[2-cyanoethyl(methyl)amino]-1-piperidyl]-2-oxo-ethyl]-3-[2-(difluoromethoxy)-5-ethylsulfanyl-phenyl]pyrazol-4-yl]pyrazolo[1,5-a]pyrimidine-3-carboxamide] | – | 25
– | – | 0.29 | – | – | Cn1cc(NC(=O)c2cnn3cccnc23)c(-c2cc(SC3COC3)ccc2OC(F)F)n1 [F] | greater selectivity for JAK1 over LRRK2 than their 5-chlorophenyl matched pair A | –
– | – | 0.16 | – | – | Cn1cc(NC(=O)c2cnn3cccnc23)c(-c2cc(SC(CF)CF)ccc2OC(F)F)n1 [G] | greater selectivity for JAK1 over LRRK2 than their 5-chlorophenyl matched pair A | –
– | – | – | – | – | CSc1ccc(OC(F)F)c(-c2nn(CC(C)(C)O)cc2NC(=O)c2cnn3cccnc23)c1 [H] | greater selectivity for JAK1 over LRRK2 than its 5-chlorophenyl matched pair B | –
– | – | 0.67 | – | – | CSc1ccc(OC(F)F)c(-c2nn(C3CCOCC3)cc2NC(=O)c2cnn3cccnc23)c1 [I] | greater selectivity for JAK1 over LRRK2 than its 5-chlorophenyl matched pair C | –
2450 | 8167 | 0.3 | – | – | COC(=O)N1CCN(CC2CCN(C(=O)Cn3cc(NC(=O)c4cnn5cccnc45)c(-c4cc(SC)ccc4OC(F)F)n3)CC2)CC1 [J] | high degree of JAK1 over LRRK2 selectivity | –
1700 | 8500 | 0.2 | – | – | CSc1ccc(OC(F)F)c(-c2nn(CC(=O)N3CCC(N4CCC[C@@H](C#N)C4)CC3)cc2NC(=O)c2cnn3cccnc23)c1 [K] | high degree of JAK1 over LRRK2 selectivity | –
2000 | 6453 | 0.31 | – | – | CSc1ccc(OC(F)F)c(-c2nn(CC(=O)N3CCC(CN4CCN(CC(=O)N(C)C)CC4)CC3)cc2NC(=O)c2cnn3cccnc23)c1 [L] | high degree of JAK1 over LRRK2 selectivity | –
3350 | 16750 | 0.2 | – | – | CSc1ccc(OC(F)F)c(-c2nn(CC(=O)N3CCC(NCC(C)(C)C#N)CC3)cc2NC(=O)c2cnn3cccnc23)c1 [M] | high degree of JAK1 over LRRK2 selectivity | –
1850 | 6379 | 0.29 | – | – | CSc1ccc(OC(F)F)c(-c2nn(CC(=O)N3CCC(N4CCOCC4)CC3)cc2NC(=O)c2cnn3cccnc23)c1 [N] | high degree of JAK1 over LRRK2 selectivity | –
